For experiment [1], the target named is T1, HiBiT-EZH2 in EZH2-HiBiT HEK293T cells (Homo sapiens, UniProt Q15910).
T1 construct: endogenous in cells; host or cells: HEK293T (CRISPR/Cas9 HiBiT knock-in at the EZH2 locus)
Briefly: EZH2 proteolytic activity using Nano-BiT assay system. It counts as cell-based. The settings on record: for EZH2 proteolytic ability compared to comparative compounds 1, 2 and 3 (in words): 1 μM; for Relative EZH2 degradation rate, 1 μM(%) Average: 72 hours, n = 3. Here is the method:
In order to evaluate the EZH2 proteolytic activity of the compound according to the present invention, the following experiment was performed. Specifically, the CRISPR/Cas9 technique was used to construct a stable cell line of HiBiT-EZH2. […] After harvesting the cells, the cell solution was prepared at a concentration of 1 cell/100 ul, and 100 ul of the cell solution was dispensed into each well of a 96-well plate and seeded so that a single cell could proliferate in each well. After proliferating the cells for 2-3 weeks, some of the proliferated cells from one cell were recovered and gDNA was extracted. To confirm that the HiBiT sequence was correctly inserted into the EZH2 target, deep sequencing was performed to select the cells containing the HiBiT sequence, and after further verification through Sanger sequencing, the final EZH2-HiBiT HEK293T cells were obtained. 1×10^3 of the obtained cells were placed in a 96-well white plate, and after 18 hours of stabilization, each well was treated with the example compound at a final concentration of 1 μM. The control group was treated with the same concentration of DMSO which was used as the solvent of the example compound. After 72 hours of the treatment, an assay was performed using Nano-Glo HiBiT Lytic Detection System ([…], Promega). After removing the medium, 100 μL of lysis buffer, 1 μL of LgBiT protein and 1 μL of substrate buffer were added to each well. Then, the plate was reacted in a shaking incubator at 700 rpm for 2 minutes, and then the mixture of each well was pipetted to mix well. Thereafter, the plate was reacted at room temperature for 10 minutes while light was blocked, and luminescence was measured.

The target of experiment [2] is T2, EZH2 protein in LS174T cells (Homo sapiens, UniProt Q15910).
T2 construct: endogenous in cells; host or cells: LS174T
T2 sequence (Q15910 whole entry): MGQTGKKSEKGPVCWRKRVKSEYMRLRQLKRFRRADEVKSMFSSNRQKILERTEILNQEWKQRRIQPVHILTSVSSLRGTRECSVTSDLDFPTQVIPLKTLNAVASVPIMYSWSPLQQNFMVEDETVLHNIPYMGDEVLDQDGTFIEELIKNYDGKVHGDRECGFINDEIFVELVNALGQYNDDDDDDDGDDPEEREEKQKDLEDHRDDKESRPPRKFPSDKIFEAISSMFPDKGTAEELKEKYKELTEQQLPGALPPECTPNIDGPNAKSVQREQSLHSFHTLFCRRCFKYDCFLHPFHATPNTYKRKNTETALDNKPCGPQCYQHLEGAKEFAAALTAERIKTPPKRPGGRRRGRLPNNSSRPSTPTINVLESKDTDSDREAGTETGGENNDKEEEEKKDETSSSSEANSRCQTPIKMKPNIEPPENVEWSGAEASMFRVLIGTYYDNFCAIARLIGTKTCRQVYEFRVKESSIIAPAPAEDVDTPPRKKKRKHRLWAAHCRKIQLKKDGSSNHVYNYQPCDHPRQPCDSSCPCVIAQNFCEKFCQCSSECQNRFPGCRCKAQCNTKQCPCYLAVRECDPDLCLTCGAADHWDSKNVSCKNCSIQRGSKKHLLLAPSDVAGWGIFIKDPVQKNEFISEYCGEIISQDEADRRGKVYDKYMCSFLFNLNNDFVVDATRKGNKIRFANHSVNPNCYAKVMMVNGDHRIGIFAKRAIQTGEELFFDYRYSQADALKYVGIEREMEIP
T2 sequence (O75530 whole entry partner): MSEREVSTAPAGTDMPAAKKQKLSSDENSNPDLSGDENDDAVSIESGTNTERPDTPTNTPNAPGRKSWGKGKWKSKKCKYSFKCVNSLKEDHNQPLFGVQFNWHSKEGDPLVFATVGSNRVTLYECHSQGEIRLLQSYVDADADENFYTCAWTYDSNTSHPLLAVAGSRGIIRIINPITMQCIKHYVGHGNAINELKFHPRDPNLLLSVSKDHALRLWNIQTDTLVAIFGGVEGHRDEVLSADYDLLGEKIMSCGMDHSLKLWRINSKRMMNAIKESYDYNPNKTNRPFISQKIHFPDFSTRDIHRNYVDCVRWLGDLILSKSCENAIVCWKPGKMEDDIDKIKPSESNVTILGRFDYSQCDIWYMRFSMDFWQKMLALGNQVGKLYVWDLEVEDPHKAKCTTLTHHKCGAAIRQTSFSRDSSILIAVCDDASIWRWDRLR
T2 sequence (Q15022 whole entry partner): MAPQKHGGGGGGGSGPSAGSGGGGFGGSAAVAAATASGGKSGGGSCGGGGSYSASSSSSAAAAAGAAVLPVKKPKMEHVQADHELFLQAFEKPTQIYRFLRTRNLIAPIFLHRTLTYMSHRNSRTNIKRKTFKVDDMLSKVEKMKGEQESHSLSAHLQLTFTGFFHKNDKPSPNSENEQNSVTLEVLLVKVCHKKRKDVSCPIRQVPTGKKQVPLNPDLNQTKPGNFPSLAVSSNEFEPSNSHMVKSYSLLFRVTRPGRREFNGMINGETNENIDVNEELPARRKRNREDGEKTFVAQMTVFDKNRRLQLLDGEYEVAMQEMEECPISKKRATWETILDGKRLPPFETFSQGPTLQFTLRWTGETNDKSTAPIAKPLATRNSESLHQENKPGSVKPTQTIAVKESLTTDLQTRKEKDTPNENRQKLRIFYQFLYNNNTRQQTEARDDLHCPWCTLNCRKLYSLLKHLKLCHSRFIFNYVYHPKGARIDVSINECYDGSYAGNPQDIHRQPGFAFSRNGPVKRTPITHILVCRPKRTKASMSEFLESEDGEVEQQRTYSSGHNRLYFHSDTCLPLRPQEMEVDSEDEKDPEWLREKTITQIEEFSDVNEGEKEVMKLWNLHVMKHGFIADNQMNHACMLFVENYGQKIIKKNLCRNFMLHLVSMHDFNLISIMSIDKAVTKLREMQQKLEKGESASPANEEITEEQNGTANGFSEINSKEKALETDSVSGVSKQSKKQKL
Briefly: Proteolytic effect in colorectal cancer cells (Western blotting). The experiment is classed as cell-based. Here is the method: After 72 hours of the treatment, the cells were collected and lysed using RIPA buffer (50 mM Tris, pH 7.5, 150 mM NaCl, 1% Triton X-100, 0.1% SDS, […], 0.5% deoxycholate, and protease inhibitor cocktail), followed by sonication (30 sec on/30 sec off, 5 cycles) to prepare a cell lysate.
On the technique in general: In western blotting, separated proteins are transferred to a membrane and probed.

The mark [3] stands for this setting: EZH2 protein, LS174T cells, 1 μM, 72 hours.
Setting [4] is: EZH2 protein, LS174T cells, 1 uM, 72 hours, Western blotting.

Where two headings read alike, the source gives them in different places.

T1 sequence (Q15910 whole entry): as the sequence (Q15910 whole entry) above
T1 sequence (O75530 whole entry partner): as the sequence (O75530 whole entry partner) above
T1 sequence (Q15022 whole entry partner): as the sequence (Q15022 whole entry partner) above

As for `CCN(c1cc(-c2ccc(CN3CCN(CC(=O)NCCCCCOCCCOCC(=O)N[C@H](C(=O)N4C[C@H](O)C[C@H]4C(=O)NCc4ccc(-c5scnc5C)cc4)C(C)(C)C)CC3)cc2)cc(C(=O)NCc2c(C)cc(C)[nH]c2=O)c1C)C1CCOCC1` [Example 37, (2S,4R)-1-((S)-2-(tert-butyl)-18-(4-((3′-(((4,6-dimethyl-2-oxo-1,2-dihydropyridine-3-yl)methyl)carbamoyl)-5′-(ethyl(tetrahydro-2H-pyran-4-yl)amino)-4′-methyl-[1,1′-biphenyl]-4-yl)methyl)piperazine-1-yl)-4,17-dioxo-6,10-dioxa-3,16-diazaoctadecanoyl)-4-hydroxy-N-(4-(4-methylthiazole-5-yl)benzyl)pyrrolidine-2-carboxamide], in experiment [1], the “EZH2 proteolytic ability compared to comparative compounds 1, 2 and 3 (in words)” value is recorded as “significantly better EZH2 proteolytic ability”; the “Relative EZH2 degradation rate, 1 μM(%) Average” value is reported as 62.9%. The “Grade (percent value of the protein degradation when treated with 1 μM)” value in experiment [2] (setting [3]) was “A (>75%)”. For the same molecule, the “%, degradation at 1 uM” value in experiment [2] (setting [4]) was found to be 92.73%. Moreover, the “effect of degrading EZH2 protein when treated to colorectal cancer cells (in words)” value in experiment [2] (LS174T cells) was “excellent effects”.
Take `CCN(c1cc(-c2ccc(CN3CCN(CC(=O)NCCCCCCOCC(=O)N[C@H](C(=O)N4C[C@H](O)C[C@H]4C(=O)NCc4ccc(-c5scnc5C)cc4)C(C)(C)C)CC3)cc2)cc(C(=O)NCc2c(C)cc(C)[nH]c2=O)c1C)C1CCOCC1` [Example 46, (2S,4R)-1-((S)-2-(2-((6-(2-(4-((3′-(((4,6-dimethyl-2-oxo-1,2-dihydropyridine-3-yl)methyl)carbamoyl)-5′-(ethyl(tetrahydro-2H-pyran-4-yl)amino)-4′-methyl-[1,1′-biphenyl]-4-yl)methyl)piperazine-1-yl)acetamido)hexyl)oxy)acetamido)-3,3-dimethylbutanoyl)-4-hydroxy-N-(4-(4-methylthiazole-5-yl)benzyl)pyrrolidine-2-carboxamide]: in experiment [1], the “EZH2 proteolytic ability compared to comparative compounds 1, 2 and 3 (in words)” value is on record as “significantly better EZH2 proteolytic ability”; the “Relative EZH2 degradation rate, 1 μM(%) Average” value worked out at 65.8%. In addition, in experiment [2], the “%, degradation at 1 uM” value turned out to be 83.76%; the “EZH2 proteolytic effect by Western blotting (figure, in words)” value is “confirming the EZH2 proteolytic effect”; the “Grade (percent value of the protein degradation when treated with 1 μM)” value is listed as “A (key: A: >75%; B: 50-75%; C: 25-50%; D: <25%)”.
For the molecule `CCN(c1cc(-c2ccc(CN3CCN(CC(=O)NCCCCCCCCCOCC(=O)N[C@H](C(=O)N4C[C@H](O)C[C@H]4C(=O)NCc4ccc(-c5scnc5C)cc4)C(C)(C)C)CC3)cc2)cc(C(=O)NCc2c(C)cc(C)[nH]c2=O)c1C)C1CCOCC1` [Example 49, (2S,4R)-1-((S)-2-(2-((9-(2-(4-((3′-(((4,6-dimethyl-2-oxo-1,2-dihydropyridine-3-yl)methyl)carbamoyl)-5′-(ethyl(tetrahydro-2H-pyran-4-yl)amino)-4′-methyl-[1,1′-biphenyl]-4-yl)methyl)piperazine-1-yl)acetamido)nonyl)oxy)acetamido)-3,3-dimethylbutanoyl)-4-hydroxy-N-(4-(4-methylthiazole-5-yl)benzyl)pyrrolidine-2-carboxamide], in experiment [1], the “EZH2 proteolytic ability compared to comparative compounds 1, 2 and 3 (in words)” value is given as “significantly better EZH2 proteolytic ability”; the “Relative EZH2 degradation rate, 1 μM(%) Average” value stood at 77.8%. Besides, the “Grade (percent value of the protein degradation when treated with 1 μM)” value in experiment [2] (setting [3]) is given as “A (>75%)”. Moreover, the “%, degradation at 1 uM” value in experiment [2] (setting [4]) is on record as 96.49%. Further, the “EZH2 proteolytic effect by Western blotting (figure, in words)” value in experiment [2] (FIGS. 1 to 5) is “confirming the EZH2 proteolytic effect”. In addition, in experiment [2] (LS174T cells), the “effect of degrading EZH2 protein when treated to colorectal cancer cells (in words)” value is “excellent effects”.

(Values after patent US12502434B2, “Compound comprising EZH2 inhibitor and E3 ligase binder and pharmaceutical composition for preventing or treating EZH2-associated disease comprising same as active ingredient” (DAEGU-GYEONGBUK MEDICAL INNOVATION FOUNDATION, priority 2019, dated 2025).)
